Tests used:
KKA^y mice = experiment: Glucose-lowering and lipid-lowering (triglyceride-lowering) actions in mice; type: in vivo; conditions: test compound 0.01% in powdery diet for four days, non-administration group taken as 100%; for glucose-lowering action (%): reduction percent of blood glucose level; for lipid-lowering action (%): reduction percent of blood triglyceride level
Excerpt: Glucose-Lowering and Lipid-Lowering (Triglyceride-Lowering) Actions in Mice
Test compounds were mixed in a powdery diet (CE-2, Japan Clea) at the proportion of 0.01%, and freely given to KKA^y mice (9 to 12 weeks old, 5 mice per group), a model of obesity-non-insulin dependent diabetes mellitus (type 2 diabetes mellitus), for four days. During this period, water was given freely. Blood was sampled from orbital venous plexus, and glucose and triglyceride levels in plasma separated from the blood were determined enzymatically using L type Wako Glu2 (Wako Pure Chemical Industries, Ltd.) or L type Wako TG-H (Wako Pure Chemical Industries, Ltd.), respectively. The results are given in [Table 1].
In the Table, “glucose-lowering action (%)” represents a reduction percent (%) of the blood glucose level in a test compound administration group when the blood glucose level in a test compound non-administration group is taken as 100%. In addition, “lipid-lowering action (%)” represents a reduction percent (%) of the blood triglyceride level in the test compound administration group when the blood triglyceride level in the test compound non-administration group is taken as 100%.

PPARγ-RXRα heterodimer = target: T1, PPARγ-RXRα heterodimer (Homo sapiens, UniProt P19793+P37231); experiment: PPARγ-RXRα heterodimer ligand activity (luciferase reporter, PPARγ:RXRα:4ERPP/CHO-K1 cells); type: cell-based; conditions: 48 hrs, concentration for 50% of the maximum fold induction
T1 construct: 1.4 kb DNA fragment containing PPARγ gene was recovered from the gel; 1.4 kb DNA fragment containing RXRα gene was recovered from the gel; expressed in transfected cells
T1 sequence (P37231 1-477 isoform P37231-2): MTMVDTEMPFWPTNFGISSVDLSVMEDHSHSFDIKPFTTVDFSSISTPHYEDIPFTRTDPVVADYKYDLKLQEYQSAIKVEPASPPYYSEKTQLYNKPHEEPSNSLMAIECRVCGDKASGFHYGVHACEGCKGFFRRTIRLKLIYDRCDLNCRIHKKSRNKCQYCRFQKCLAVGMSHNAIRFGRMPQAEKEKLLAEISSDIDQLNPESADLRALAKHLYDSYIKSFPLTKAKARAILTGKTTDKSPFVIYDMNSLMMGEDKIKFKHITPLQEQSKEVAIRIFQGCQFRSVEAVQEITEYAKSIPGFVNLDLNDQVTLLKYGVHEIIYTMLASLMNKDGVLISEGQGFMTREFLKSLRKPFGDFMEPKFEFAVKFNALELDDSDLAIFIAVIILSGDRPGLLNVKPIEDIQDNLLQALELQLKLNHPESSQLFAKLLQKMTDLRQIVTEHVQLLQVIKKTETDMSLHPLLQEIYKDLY
T1 sequence (P19793 1-462): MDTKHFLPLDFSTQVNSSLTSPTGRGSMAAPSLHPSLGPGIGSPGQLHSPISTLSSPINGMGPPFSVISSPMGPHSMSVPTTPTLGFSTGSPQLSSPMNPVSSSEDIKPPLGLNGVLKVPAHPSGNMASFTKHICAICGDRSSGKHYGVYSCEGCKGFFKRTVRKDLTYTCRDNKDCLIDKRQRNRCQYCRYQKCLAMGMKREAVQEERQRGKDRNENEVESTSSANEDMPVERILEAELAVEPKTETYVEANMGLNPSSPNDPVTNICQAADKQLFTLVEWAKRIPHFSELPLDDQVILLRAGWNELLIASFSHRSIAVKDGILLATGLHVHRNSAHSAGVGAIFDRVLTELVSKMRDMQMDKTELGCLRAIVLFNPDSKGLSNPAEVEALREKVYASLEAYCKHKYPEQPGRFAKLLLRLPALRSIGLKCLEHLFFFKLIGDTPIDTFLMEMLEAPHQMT
Protocol: (PPARγ-RXRα Heterodimer Ligand Activity)
PPARγ: RXRα: 4ERPP/CHO-K1 cells obtained in the following Reference Example 5 were cultured in HAM F12 medium (manufactured by NISSUI SEIYAKU) containing 10% fetal bovine serum [manufactured by Life Technologies, Inc., USA], seeded in a 96-well white plate [manufactured by Corning Coster Corporation, USA] at the density of 2×10^4 cells/well and cultured in a CO2 gas incubator at 37° C. overnight.
After washing the 96-well white plate with PBS (Phosphate-buffered saline), 90 μl of HAM F12 medium containing 0.1% fatty acid-free bovine serum albumin (BSA) and 10 μl of test compound were added, and the cells were cultured in a CO2 gas incubator at 37° C. for 48 hrs. The medium was removed and 40 μl of PicaGene 7.5 (manufactured by Wako Pure Chemical Industries, Ltd.) was added. After stirring, the luciferase activity was determined using Lumistar [manufactured by BMG Labtechnologies GmbH, Germany].
The fold induction was calculated from the luciferase activity of each test compound when the luciferase activity of the test compound non-administration group is taken as 1. The values of the test compound concentration and the fold induction were analyzed using PRISM 2.01 (produced by GraphPad Software Inc. USA) to calculate the EC50 values, the concentration of a test compound for 50% of the maximum fold induction. The results are shown in [Table 2].
Introduction of Human PPARγ- and RXRα-Expression Plasmid and Reporter Plasmid into CHO-K1 Cell as Well as Establishment of Expressed Cell
A CHO-K1 cell cultured in a tissue culture flask (750 ml) [produced by Corning Costar Corporation, USA] containing HAM F12 medium (produced by NISSUI SEIYAKU) supplemented with 10% fetal bovine serum [produced by Life Technologies, Inc., USA] was scraped by treating with 0.5 g/L trypsin-0.2 g/L EDTA (ethylenediamine tetraacetate) [produced by Life Technologies, Inc., USA], and then the cell was washed with PBS (Phosphate-buffered saline)[produced by Life Technologies, Inc., USA], centrifuged (1000 rpm, 5 minutes) and suspended in PBS. Subsequently, DNA was introduced into the cell under the conditions shown below using GENE PULSER (produced by Bio-Rad Laboratories, USA).
Namely, to a cuvette having a 0.4 cm gap were added 8×10^6 cells and 10 μg of plasmid pVgRXR2-hPPARγ obtained in Reference Example 3 and 10 μg of reporter plasmid pGL3-4ERPP-TK neo obtained in Reference Example 4, which was subjected to electroporation at the voltage of 0.25 kV under the capacitance of 960 μF. Subsequently, the cell was transferred into a HAM F12 medium containing 10% fetal bovine serum and cultured for 24 hours, and then the cell was scraped again and centrifuged, and then suspended in HAM F12 medium containing 10% fetal bovine serum supplemented with 500 μg/ml of Geneticin [produced by Life Technologies, Inc., USA] and 250 μg/ml of Zeocin (produced by Invitrogen, USA). The obtained suspension was diluted to the density of 10^4 cells/ml and inoculated in a 96-well plate [produced by Corning Costar Corporation, USA], which was cultured in a CO2 gas incubator at 37° C., whereby obtaining a Geneticin- and Zeocin-resistant transformant.
Subsequently, after the transformant cell line thus obtained was cultured in a 24-well plate [produced by Corning Costar Corporation, USA], a cell line in which the luciferase was expressed and induced, i.e., PPARγ: RXRα: 4ERPP/CHO-K1 cell was selected by the addition of 10 μM pioglitazone hydrochloride.

Row | melting point [°C] | EC50 (PPARγ-RXRα heterodimer) [µM] | Structure (SMILES) | glucose-lowering action (%) (KKA^y mice) | lipid-lowering action (%) (KKA^y mice)
1 | 218 to 219 |  | COC(=O)c1ccc(-c2nnc(-c3ccc(C(F)(F)F)cc3)s2)cc1 [Example 58, methyl 4-[5-(4-trifluoromethylphenyl)-1,3,4-thiadiazol-2-yl]benzoate] | 37 | 48
2 | 270 to 271 | 0.0038 | O=C(O)c1ccc(-c2ccc(-c3ccc(C(F)(F)F)cc3)o2)cc1 [Example 10, 4-[5-(4-trifluoromethylphenyl)-2-furyl]benzoic acid] | 37 | 62
3 | 285 to 286 | 0.022 | O=C(O)c1ccc(-c2ccc(-c3ccc(Cl)cc3)s2)cc1 [Example 15, 4-[5-(4-chlorophenyl)-2-thienyl]benzoic acid] | 30 | 54
